{"source": "paper PMC8621208", "about": "“Antiseptic 9-Meric Peptide with Potency against Carbapenem-Resistant Acinetobacter baumannii Infection” (International Journal of Molecular Sciences, 2021)", "key": {"E. coli": {"tested_on": "E. coli", "assay": "MIC, broth dilution", "assay_type": "cell-based, Escherichia coli KCTC 1682", "conditions": "E. coli; 16 h, MH media; read-out: Minimal Inhibitory Concentration (MIC)", "from_the_text": "(§1) Escherichia coli KCTC 1682 was obtained from the Korean Collection for Type Cultures (KCTC) (Jeongeup-si, Korea), Acinetobacter baumannii KCCM 40203, Pseudomonas aeruginosa KCCM 11328 from the Korea Culture Center of Microorganisms (KCCM) (Seoul, Korea). Klebsiella pneumoniae NCCP 16054 were obtained from the National Culture Collection for Pathogens (NCCP) (Osong, Korea). Additionally, two carbapenem-resistant E. coli (CREC E1 and E2), 11 carbapenem-resistant A. baumannii (CRAB C0–C10) and two carbapenem-resistant K. pneumoniae (CRKP K1 and K2) were isolated from the patients, who presented symptoms and signs of infection at Korea University Anam Hospital (Seoul, Korea) (IRB registration no. 2020AN0157, 4 March 2021). CRAB C0–C10 have the OXA-23 gene with carbapenem-resistance.\n(§2) The minimum inhibitory concentrations (MIC) were determined using broth dilution method. Briefly, all the mentioned bacterial strains were grown overnight at 37 °C by Muller–Hinton (MH) media. […] After 16 h incubation, the bacterial growth was read at 600 nm using a SpectraMAX microplate reader (Molecular Devices, San Jose, CA, USA)."}, "CREC E1": {"tested_on": "CREC E1", "assay": "MIC, broth dilution", "assay_type": "cell-based, carbapenem-resistant E. coli", "conditions": "read-out: Minimal Inhibitory Concentration (MIC)", "from_the_text": "as §1, §2"}, "CREC E2": {"tested_on": "CREC E2", "assay": "MIC, broth dilution", "assay_type": "cell-based, carbapenem-resistant E. coli", "conditions": "read-out: Minimal Inhibitory Concentration (MIC)", "from_the_text": "as §1, §2"}, "CRAB C0 outer membrane": {"tested_on": "CRAB C0 outer membrane", "assay": "Outer membrane permeability, NPN uptake", "assay_type": "cell-based, carbapenem-resistant A. baumannii", "procedure": "The effect of peptides on the disturbance of CRAB C0 outer membrane was analyzed using 1-N-phenylnaphthylamine (NPN, Sigma-Aldrich, St. Louis, MO, USA) uptake assay, as previously described. Briefly, CRAB C0 cell suspensions were mixed with NPN (1 mM) and the background fluorescence was recorded for subtraction (excitation λ = 350 nm, emission λ = 420 nm) using RF-6000PC fluorescent spectrophotometer (Shimadzu Scientific Instruments, Kyoto, Japan). Changes in the NPN fluorescence were recorded after addition of different concentrations of peptides and values are expressed as—fluorescence intensity (A.U.)."}, "CRAB C0": {"tested_on": "CRAB C0", "assay_type": "cell-based, carbapenem-resistant A. baumannii", "conditions": "peptide pre-incubated 6 h at 37 °C", "procedure": "All the peptides at their MICs were pre-incubated with proteolytic enzymes such as trypsin and α-chymotrypsin (10,000:1; peptide: enzyme ratio) for 6 h at 37 °C. Then, 100 μL of peptide-protease cocktail was added to the 100 µL bacterial suspension (E. coli, A. baumannii and CRAB C0, 2 × 10^5 CFU/mL) and further incubated for 16 h at 37 °C. Bacterial suspension without peptide and protease served as negative control. The analysis was repeated at three times using independent experiments, and the degree of bacterial growth was measured at 600 nm using a microplate reader."}, "[1]": {"assay": "In vivo toxicity, serum AST, ALT, BUN", "set-up": "species or system ICR mice", "conditions": "mice, 1 and 5 mg/kg i.p., 24 h", "procedure": "Control mice received phosphate-buffered saline only and the treatment was performed for 24 h. (B) R-Pro9-3D prolonged the survival rate of mice infected with CRAB C0. […] In sepsis model, mice (5 mice per group) were treated with R-Pro9-3D (1 mg/kg) for 1 h and the antiseptic analyses were evaluated after CRAB C0 (6 × 10^6 CFU/mouse, 16 h) infection. (C) R-Pro9-3D restricted the bacterial entry in the lung, liver, and kidneys. The corresponding organ lysates were plated onto agar plates and the total no of bacterial colonies were scored. (D) R-Pro9-3D effectively normalized the endotoxin levels in CRAB C0-infected mice. (E–G) Effect of R-Pro9-3D on serum levels of AST, ALT and BUN. (H–K) R-Pro9-3D inhibited the production of inflammatory cytokines (TNF-α and IL-6) in the serum and lung lysates of CRAB C0-infected mice, as measured by enzyme-linked immunosorbent assay (ELISA). (L) Photomicrograph show the modulatory effect of R-Pro9-3D on neutrophil infiltration in the hematoxylin and eosin (H&E)-stained lung tissues (Magnification 20×, Scale bar 100 μm). […] Values are expressed as mean ± SEM (Five mice per group). […]\nThe ICR mice (n = 5 per group) were intraperitoneally (i.p.) injected with R-Pro9-3D (1 mg and 5 mg/kg/day in PBS) and the serum levels of AST, ALT, and BUN levels were determined using a standard kit from Asan Pharmaceutical as described previously."}}, "note": "Like-named read-outs stand apart in the source and are kept apart here. Where a SMILES comes first, the peptide text is derived from it. [ ]: non-standard residue; d: D form."}
{"smiles": "CC[C@@H](C)[C@@H](NC(=O)[C@@H](Cc1c[nH]c2ccccc12)NC(=O)[C@@H](CCCNC(=N)N)NC(=O)[C@H](N)CCCNC(=N)N)C(=O)N[C@H](C)C(=O)N[C@H](CC(C)C)C(=O)N[C@H](Cc1c[nH]c2ccccc12)C(=O)N[C@H](CC(C)C)C(=O)N[C@H](CCCNC(=N)N)C(N)=O", "note": "[R-Pro9-3D, rrwialwlr-NH2] (H-[dR][dR][dW][dI][dA][dL][dW][dL][dR]-NH2)", "values": [{"measurement": "MIC", "setting": "E. coli", "result": 8, "unit": "µM"}, {"measurement": "MIC", "setting": "CREC E1", "result": 8, "unit": "µM"}, {"measurement": "MIC", "setting": "CREC E2", "result": 8, "unit": "µM"}, {"measurement": "NPN uptake (outer membrane permeabilization)", "setting": "CRAB C0 outer membrane", "result": "greater NPN uptake than their L-form peptides"}, {"measurement": "Minimal Inhibitory Concentration (MIC)", "setting": "CRAB C0; CRAB C0 + Trypsin", "result": 4, "unit": "µM"}, {"measurement": "Minimal Inhibitory Concentration (MIC)", "setting": "CRAB C0; CRAB C0 + α-Chymotrypsin", "result": 4, "unit": "µM"}, {"measurement": "Serum levels of AST, ALT and BUN", "setting": "[1]", "result": "Neither dose of R-Pro9-3D elevated the levels of these enzymes"}]}
